Measurements reported in PubChem BioAssay (NCI).
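Cells were grown in 96-well plates and exposed to each compound for 48 hours at five concentrations; endpoints were interpolated linearly between bracketing concentrations, or set to the highest concentration if not reached. The concentration for full growth arrest is given as TGI.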

Tests used:
Assay in all cases: growth of human tumour cells (NCI), 48 h
[1] = system: 786-0 renal
[2] = system: A498 renal
[3] = system: A549 NSCLC
[4] = system: ACHN renal
[5] = system: BT-549 breast
[6] = system: COLO 205 colon
[7] = system: DU-145 prostate
[8] = system: HCC-2998 colon
[9] = system: HCT-116 colon
[10] = system: HCT-15 colon
[11] = system: HL-60(TB) leukemia
[12] = system: HOP-62 NSCLC
[13] = system: HOP-92 NSCLC
[14] = system: HS 578T breast
[15] = system: HT29 colon
[16] = system: IGROV1 ovarian
[17] = system: K-562 leukemia
[18] = system: KM12 colon
[19] = system: LOX IMVI melanoma
[20] = system: M14 melanoma
[21] = system: MALME-3M melanoma
[22] = system: MCF7 breast
[23] = system: MDA-MB-231 breast
[24] = system: MDA-MB-435
[25] = system: MDA-N
[26] = system: NCI-H226 lung
[27] = system: NCI-H23 lung
[28] = system: NCI-H460 lung
[29] = system: NCI/ADR-RES ovarian
[30] = system: OVCAR-3 ovarian
[31] = system: OVCAR-4 ovarian
[32] = system: OVCAR-5 ovarian
[33] = system: PC-3 prostate
[34] = system: RPMI-8226 leukemia
[35] = system: RXF 393 renal
[36] = system: SF-268 CNS
[37] = system: SF-539 CNS
[38] = system: SK-MEL-2 melanoma
[39] = system: SK-MEL-28 melanoma
[40] = system: SK-MEL-5 melanoma
[41] = system: SK-OV-3 ovarian
[42] = system: SN12C renal
[43] = system: SNB-19 CNS
[44] = system: SNB-75 CNS
[45] = system: SR leukemia
[46] = system: SW-620 colon
[47] = system: T-47D breast
[48] = system: TK-10 renal
[49] = system: U251 CNS
[50] = system: UACC-257 melanoma
[51] = system: UACC-62 melanoma
[52] = system: UO-31 renal
[53] = system: CAKI-1 renal
[54] = system: CCRF-CEM leukemia
[55] = system: EKVX NSCLC
[56] = system: MOLT-4 leukemia
[57] = system: NCI-H522 lung
[58] = system: OVCAR-8 ovarian
[59] = system: SF-295 CNS

Measured: TGI

C=C1c2nc3ccccc3n2C=C(c2ccc(Cl)cc2)N1c1ccc(OCCN2CCOCC2)cc1
42 µM: [45]
58.8 µM: [20]
98.6 µM: [6]
99.6 µM: [51]
35 µM: [11]
71.5 µM: [40]
90.3 µM: [50]
29.1 µM: [38]
10.9 µM: [34]
not listed: [53] | [54] | [55] | [56] | [57] | [58] | [59]
> 100 µM: all other assays above

N#CS/C(C(Cl)=C(Cl)Cl)=C(/Cl)[N+](=O)[O-]
1.62 µM: [17]
3.49 µM: [58]
3.19 µM: [24]
30 µM: [49]
3.66 µM: [6]
1.18 µM: [54]
6.59 µM: [10]
19.9 µM: [26]
> 61.4 µM: [14]
3.18 µM: [25]
38.2 µM: [2]
17.5 µM: [51]
33.2 µM: [28]
32.4 µM: [18]
2.19 µM: [56]
18.9 µM: [36]
4.92 µM: [5] | [42]
45.4 µM: [59]
6.37 µM: [40]
17.1 µM: [38]
3.5 µM: [46]
3.45 µM: [39]
34.6 µM: [8]
16.1 µM: [37]
4.66 µM: [48]
31.2 µM: [41]
33.4 µM: [12]
9.79 µM: [33]
2.79 µM: [20]
2.37 µM: [19]
52 µM: [44]
3.79 µM: [50]
7.95 µM: [27]
3 µM: [9]
3.1 µM: [4] | [30] | [52]
2.42 µM: [53]
4.25 µM: [34]
> 28.1 µM: [29]
11.9 µM: [23]
2.13 µM: [57]
49.4 µM: [43]
27.8 µM: [7]
6.76 µM: [55]
2.15 µM: [45]
5.63 µM: [16]
0.512 µM: [11]
3.25 µM: [21]
53.8 µM: [3]
4.86 µM: [47]
2.98 µM: [35]
29.3 µM: [22]

NC(CCCCCP(=O)(O)O)C(=O)O (configuration not stated)
not listed: [1] | [2] | [12] | [21] | [22] | [26]
> 100 µM: all other assays above

ON=C1CCCCC(=NO)CCCC1
not listed: [11] | [12] | [16] | [20] | [30] | [32] | [35] | [45] | [54] | [55] | [56]
> 100 µM: all other assays above
